# Source: paper PMC12951568, “Identifying Structural Factors Governing the Photodynamic Activity of Phthalocyanines” (Journal of Medicinal Chemistry, 2026)
# Values joined by “and” are separate entries in the source; they are usually repeats but may differ in a detail not shown here. Equal values may be shown once.
# What was measured:
# [1] = Quantum yield of singlet oxygen production, comparative method with DPBF scavenger; type: physicochemical; details: in DMF, ZnPc as reference
# Experimental: Eight μL of the 100 μM stock solution of the dye in DMF (or DMF + water or water; see above) was added. A xenon lamp (100 W, ozone free XE DC short arc lamp, New port) was used to irradiate the sample while stirring. The incident light was filtered through a water filter (6 cm) and cut off filter OG530 eliminating heat and light under 523 nm, respectively. […] The decrease of DPBF in solution with irradiation time was monitored at 415 nm. The values of ΦΔ of the dyes were calculated by the following equation: φΔS=φΔ[…] is the slope of the plot of the dependence of ln([…] 0 and A t being the absorbances of the DPBF at 415 nm before irradiation and after irradiation time t, respectively. I aT is the total amount of light absorbed by the dye sample. Superscripts R and S indicate the reference and sample, respectively. I aT is calculated as a sum of intensities of the absorbed light I a at wavelengths from 523 to 850 nm (step 0.5 nm). Light under 523 nm is completely filtered by an OG530 filter, and light above 850 nm is not absorbed by the studied dye sample. I a at a given wavelength is calculated using Beer-Lambert'[…]) where I 0 is transmittance of the filter at the given wavelength and A is the absorbance of the dye at this wavelength. All experiments were performed three times, and the data presented is the mean value of the three obtained results with estimated error ± 10%.
# [2] = Fluorescence quantum yield, comparative method; type: physicochemical; details: in DMF; ZnPc as reference
# Experimental: The fluorescence quantum yields (ΦF) were determined by a comparative method with ZnPc as the reference (ΦF = 0.32 in THF). The ΦF values were calculated using the following formula: ϕFS=ϕFR(F^S/F^R)(1−10^−A^R/1−10^−A^S)(η^S/η^R)^2 where F is the integrated area under the emission spectrum and A is the absorbance at the excitation wavelength. Superscripts R and S indicate the reference and sample, respectively. η stands for the refractive index of the solvent. Absorption in the Q-band was kept below 0.05 to eliminate the inner filter effect. Excitation wavelengths were the same as those used for emission spectra (see above). The emission wavelengths were set to their emission maxima to avoid exceeding the detector limit with stimated error ± 15%.
# [3] = Absorption and fluorescence emission spectra in DMF; type: physicochemical; details: in DMF
# Experimental: An absorption spectrum of 2.475 mL of solvent (water, DMF, or PBS) was taken (i.e., absorption spectrum of baseline); then, 25 μL of stock solution was added to reach the final concentration of 1 μM in the cuvette, and the absorption and emission spectra were taken. Baseline of the solvent was subtracted from the obtained absorption spectrum to get the final absorption spectrum of the sample.
# [4] = molecular target: bovine serum albumin (BSA) (Bos taurus, UniProt P02769); assay: Interaction with bovine serum albumin (absorption and emission spectra in PBS); type: binding; details: 1 μM Pc in PBS, BSA 17.5, 35 and 100 μM
# [5] = tested on: SK-MEL-28 (human skin melanoma); assay: Photodynamic activity (phototoxicity, neutral red uptake) on SK-MEL-28; type: cell-based; details: 12 h incubation, Xe-lamp 15 min, λ > 570 nm, 11.2 J/cm^2, mean ± SD, t.w. = this work
# Experimental: (§1) Detailed in vitro studies involving subcellular localization and determination of the EC50 in three different cell lines (human cervical carcinoma–HeLa, human breast adenocarcinoma–MCF-7, and human skin melanoma–SK-MEL-28) were performed. A broadband light source (ozone-free 450 W Xe-lamp, Newport) equipped with the long-pass filter Schott OG570 was used (12.4 mW/cm^2, 15 min, 11.2 J/cm^2).
# (§2) For the cytotoxicity experiments (phototoxicity), cells were seeded at 100 μL per well into 96-well plates (TPP, Switzerland) at a density of 7.5 × 10^3 (HeLa) or 1.0 × 10^4 (MCF-7 and SK-MEL-28) cells per well. Cells were left to grow for 24 h (until they reached confluency) in a controlled environment of a CO2 incubator (37 °C, 5% CO2 atmosphere, constant high humidity). Subsequently, studied compounds were added in a wide concentration range and incubated with the cells for 12 h. Cells were washed; fresh cell culture medium was added, and the cells were irradiated using a 450 W Xe lamp (Newport, USA). The lamp was equipped with a long pass filter (Newport OG570) and an 8 cm water filter (λ > 570 nm, 12.4 mW/cm^2, 15 min, 11.2 J/cm^2). Cellular viability was assessed after an additional 24 h by the neutral red (NR; Sigma, Merck, USA) uptake assay. At least three independent experiments, each in triplicate, were performed. The soluble NR was measured at λ = 540 nm using a Tecan Infinite 200 M plate reader (Tecan, Austria). The viability of each experimental group was expressed as the percentage of the untreated cells (100% viability) after subtraction of the signal from cells treated with a lethal dose of hydrogen peroxide (0% viability). […] EC50 values were calculated, and graphs were created by using GraphPad Prism 10.3.1 (Graph Pad software, USA).
# [6] = tested on: HeLa (human cervical carcinoma); assay: Photodynamic activity (phototoxicity, neutral red uptake) on HeLa; type: cell-based; details: 12 h incubation, Xe-lamp 15 min, λ > 570 nm, 11.2 J/cm^2, mean ± SD, t.w. = this work
# Experimental: as §1, §2
# [7] = Log P, partition between n-octanol and PBS; type: physicochemical; details: partition coefficient between 1-octanol and PBS
# Experimental: 400 μL portion of n-octanol and 400 μL of PBS buffer were mixed in a plastic Eppendorf vial. Then, 20 μL of the 100 μM stock solution of the sample (see above) was added to this mixture, vortexed for 5 min at rt, and then centrifuged for 10 min (10 000 rpm, rt). 50 μL of each of these layers was taken into 2.5 mL of DMF in a quartz cuvette, and their emission spectra (excitation wavelengths in Table ) were recorded. The log P value was then computed using the area under the curve of the emission spectra of n-octanol (F oct) and PBS buffer (F PBS) layers as follows: logP=log(Foct/FPBS) Triplicate measurements were performed, and the data reported are the mean of the obtained results.
# [8] = tested on: MCF-7 (human breast adenocarcinoma); assay: Photodynamic activity (phototoxicity, neutral red uptake) on MCF-7; type: cell-based; details: 12 h incubation, Xe-lamp 15 min, λ > 570 nm, 11.2 J/cm^2, mean ± SD, t.w. = this work
# Experimental: as §1, §2
# [9] = Fluorescence lifetime in DMF; type: physicochemical
# From the text: 1 Photophysical Data of Investigated Derivatives in DMF ^a | column: τF1/ns; τF2/ns
# bovine serum albumin (BSA), sequence (P02769 25-607): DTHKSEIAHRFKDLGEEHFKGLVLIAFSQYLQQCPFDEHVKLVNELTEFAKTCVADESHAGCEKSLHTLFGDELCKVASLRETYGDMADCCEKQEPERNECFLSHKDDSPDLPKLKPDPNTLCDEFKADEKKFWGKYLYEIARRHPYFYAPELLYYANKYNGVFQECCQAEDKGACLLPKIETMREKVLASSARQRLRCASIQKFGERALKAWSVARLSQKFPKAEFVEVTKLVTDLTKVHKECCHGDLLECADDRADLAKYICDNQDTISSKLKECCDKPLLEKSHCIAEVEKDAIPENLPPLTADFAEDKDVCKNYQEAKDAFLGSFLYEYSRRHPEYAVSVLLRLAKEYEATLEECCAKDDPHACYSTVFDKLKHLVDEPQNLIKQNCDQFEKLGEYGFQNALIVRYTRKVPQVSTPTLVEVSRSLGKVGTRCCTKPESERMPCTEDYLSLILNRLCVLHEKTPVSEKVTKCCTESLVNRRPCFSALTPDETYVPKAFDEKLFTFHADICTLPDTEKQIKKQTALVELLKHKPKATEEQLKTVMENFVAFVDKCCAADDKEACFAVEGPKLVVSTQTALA
Compound,"ΦΔ, quantum yield of singlet oxygen production [1]","ΦF, fluorescence quantum yield [2]","ε, extinction coefficient [3]","λA, absorption maximum in the Q-band [3] [nm]","λF, fluorescence emission maximum [3] [nm]",Interaction with BSA: disaggregation/monomerization and changes in absorption and fluorescence emission spectra [4],EC50 [5] [nM],EC50 [6] [nM],Log P [7],EC50 [8] [nM],"τF1, fluorescence lifetime (relative amplitude in brackets) [9]","τF2, fluorescence lifetime (relative amplitude in brackets) [9]","EC50 ([5]; Homo sapiens, SK-MEL-28, light or radiation study) [nM]","EC50 ([6]; Homo sapiens, HeLa, light or radiation study) [nM]",logP ([7]; n-octanol/PBS buffer),"EC50 ([8]; Homo sapiens, MCF7, light or radiation study) [nM]"
O=S(=O)([O-])c1cc(S(=O)(=O)[O-])c2cc(Oc3cccc4c3C3=NC4=Nc4c5c(Oc6ccc7cc(S(=O)(=O)[O-])cc(S(=O)(=O)[O-])c7c6)cccc5c5[n]4[Zn][n]4c(c6cccc(Oc7ccc8cc(S(=O)(=O)[O-])cc(S(=O)(=O)[O-])c8c7)c6c4=NC4=NC(=N5)c5c(Oc6ccc7cc(S(=O)(=O)[O-])cc(S(=O)(=O)[O-])c7c6)cccc54)=N3)ccc2c1.[Na+].[Na+].[Na+].[Na+].[Na+].[Na+].[Na+].[Na+] [A7Zn],0.55,0.23,109 950 M^–1cm^–1,696,707,complete,2120 ± 560,1300 ± 400,–2.92,5100 ± 350,,,,,,
O=S(=O)([O-])c1ccc2c(c1)-c1nc-2nc2[nH]c(nc3nc(nc4[nH]c(n1)c1ccccc41)-c1ccc(S(=O)(=O)[O-])cc1-3)c1ccc(S(=O)(=O)[O-])cc21.[Na+].[Na+].[Na+] [A9H],0.19,0.22,104 650 M^–1cm^–1,,703,partial,,,,,1.97 (18%) ns,3.87 (82%) ns,300 ± 77,85 ± 7,-1.35,347 ± 125
C[n+]1cccc(Oc2ccc3c(c2)C2=NC3=Nc3c4cc(Oc5ccc[n+](C)c5)ccc4c4[n]3[Zn][n]3c(c5ccc(Oc6ccc[n+](C)c6)cc5c3=NC3=NC(=N4)c4cc(Oc5ccc[n+](C)c5)ccc43)=N2)c1.[I-].[I-].[I-].[I-] [C5Zn-I],0.49,0.25,130 860 M^–1cm^–1,674,682,,110 ± 10,62 ± 13,–2.19,60 ± 10,2.38 (97%) ns,6.53 (3%) ns,,,,
C[n+]1cccc(Oc2ccc3c(c2)C2=NC3=Nc3c4cc(Oc5ccc[n+](C)c5)ccc4c4[n]3[Zn][n]3c(c5ccc(Oc6ccc[n+](C)c6)cc5c3=NC3=NC(=N4)c4cc(Oc5ccc[n+](C)c5)ccc43)=N2)c1.F[P-](F)(F)(F)(F)F.F[P-](F)(F)(F)(F)F.F[P-](F)(F)(F)(F)F.F[P-](F)(F)(F)(F)F [C5Zn-PF 6],0.45,0.28,86 800 M^–1cm^–1,674,682,,190 ± 40,52 ± 26,–2.37,100 ± 20,2.32 (97%) ns,6.31 (3%) ns,,,,
C[n+]1cccc(Oc2ccc3c(c2)C2=NC3=Nc3c4cc(Oc5ccc[n+](C)c5)ccc4c4[n]3[Zn][n]3c(c5ccc(Oc6ccc[n+](C)c6)cc5c3=NC3=NC(=N4)c4cc(Oc5ccc[n+](C)c5)ccc43)=N2)c1.O=S(=O)(O)O.O=S(=O)(O)O.O=S(=O)([O-])[O-].O=S(=O)([O-])[O-] [C5Zn-SO 4],0.28,0.077 and 0.08,82 140 M^–1cm^–1,674,682,,150 ± 50,53 ± 9,–3.57,80 ± 30,2.47 (94%) ns,4.93 (6%) ns,,,,
COCCOCCOCCOCCOc1ccc(OCCOCCOCCOCCOC)c2c1C1=NC2=Nc2c3ccccc3c3[n]2[Zn][n]2c(c4ccccc4c2=N1)=NC1=NC(=N3)c2ccccc21 [N1Zn],0.67,0.24,82 550 M^–1cm^–1,689,702,monomerization was apparent even from the absorption spectra,16 ± 3,17 ± 5,,6 ± 1,2.41 ns,,,,,
OCc1cc(CO)cc(OCCCCSC2=C(SCCCCOc3cc(CO)cc(CO)c3)C3=Nc4c5ccccc5c5[n]4[Mg][n]4c(c6ccccc6c4=NC4=NC(=N5)c5ccccc54)=NC2=N3)c1 [N2Mg],0.17,0.16,15 950 M^–1cm^–1,684,687,fluorescence was slightly enhanced,119 ± 14,107 ± 1,,190 ± 40,1.29 (25%) ns,3.39 (75%) ns,,,,
